In paper PMC10042772 (Targeted Oncology, 2023):

Tests used:
CBP/p300 over BRD4 = conditions: selective CBP/p300 binder; cited from earlier work
[1] = cited from earlier work
MDA-MB-453 cells = test: CellTiter-Glo 2.0 viability assay, 10 days; assay type: cell-based, human; conditions: MDA-MB-453, 10 days of continuous exposure

SMILES: COc1ccc(CCc2nc3cc(-c4c(C)noc4C)ccc3n2C[C@H](C)N2CCOCC2)cc1Cl [SGC-CBP30]
- selectivity over BRD4 and other BRD and BET family members (CBP/p300 over BRD4): 40 fold
- microsomal stability [1]: poor microsomal stability

SMILES: CNC(=O)c1ccc(N2C(=S)N(c3ccc(C#N)c(C(F)(F)F)c3)C(=O)C2(C)C)cc1F [Enzalutamide, enzalutamide]
- times less active than FT-6876 at inhibiting proliferation (MDA-MB-453 cells): 45 times
